Test results from patent US12435044B2, “Pyridazinone herbicides and pyridazinone intermediates used to prepare a herbicide” (FMC Corporation, priority 2018, dated 2025).

Columns and labels:
Format in all cases: in vivo
[1] = system: E. black nightshade (SOLPT; Solanum ptycanthum); test: Test H postemergence, mixtures of Cpd. No. 20 with atrazine or glyphosate
Text: (§1) This test evaluated the effect of mixtures of Cpd. No. 20 with atrazine or glyphosate on several plant species. Seeds of plant species selected from corn (ZEAMD; Zea mays, cv. ‘Pioneer 1184’), soybean (GLXMA; Glycine max, cv. Pioneer 35T58), giant foxtail (SETFA; Setaria faberi), Surinamgrass (BRADC; Brachiaria decumbens), fall panicum (PANDI; Panicum dichotomiflorum), velvetleaf (ABUTH; Abutilon threophrasti), mare's tail (ERICA; Conyza canadensis), barnyardgrass (ECHCG; Echinochloa crus-galli), large crabgrass (DIGSA; Digitaria sanguinalis), palmer amaranth (AMAPA; Amaranthus palmeri), common waterhemp (AMATU; Amaranthus rudis), E. black nightshade (SOLPT; Solanum ptycanthum), and common ragweed (AMBEL; Ambrosia artemisiifolia) were planted in pots containing Redi-Earth® planting medium (Scotts Company, 14111 Scottslawn Road, Marysville, Ohio 43041) comprising spaghnum peat moss, vermiculite, wetting agent and starter nutrients and treated postemergence using test chemicals formulated in a non-phytotoxic solvent mixture which included a surfactant. Plants ranged in height from 2 to 10 cm and were in the one- to two-leaf stage for the postemergence treatment. Treated plants and untreated controls were maintained in a greenhouse for approximately 14 d, after which time all treated plants were compared to untreated controls and visually evaluated for injury. Plant response ratings, summarized in Tables H1 & H2, are based on a 0 to 100 scale where 0 is no effect and 100 is complete control. A dash (-) response means no test result. Test results are presented as a mean of 4 reps.

[2] = system: Surinamgrass (BRADC; Brachiaria decumbens); test: as above
Text: as §1

[3] = system: barnyardgrass (ECHCG; Echinochloa crus-galli); test: as above
Text: as §1

[4] = system: common ragweed (AMBEL; Ambrosia artemisiifolia); test: as above
Text: as §1

[5] = system: common waterhemp (AMATU; Amaranthus rudis); test: as above
Text: as §1

[6] = system: corn (ZEAMD; Zea mays, cv. ‘Pioneer 1184’); test: as above
Text: as §1

[7] = system: fall panicum (PANDI; Panicum dichotomiflorum); test: as above
Text: as §1

[8] = system: giant foxtail (SETFA; Setaria faberi); test: as above
Text: as §1

[9] = system: large crabgrass (DIGSA; Digitaria sanguinalis); test: as above
Text: as §1

[10] = system: mare's tail (ERICA; Conyza canadensis); test: as above
Text: as §1

[11] = system: palmer amaranth (AMAPA; Amaranthus palmeri); test: as above
Text: as §1

[12] = system: soybean (GLXMA; Glycine max, cv. Pioneer 35T58); test: as above
Text: as §1

[13] = system: velvetleaf (ABUTH; Abutilon threophrasti); test: as above
Text: as §1

[14] = system: corn (ZEAMD; Zea mays, cv. ‘Pioneer 1184’); test: Test of Tables L1 to L3, postemergence, mixtures of Cpd. No. 20 with benoxacor, isoxadifen-ethyl, or cloquintocet-mexyl; settings: 31 g a.i./ha
Text: (§2) This test evaluated the effect of mixtures of Cpd. No. 20 with benoxacor, isoxadifen-ethyl, or cloquintocet-mexyl on several plant species. Seeds of plant species selected from corn (ZEAMD; Zea mays, cv. ‘Pioneer 1184’), soybean (GLXMA; Glycine max, cv. Pioneer 35T58), winter wheat (TRZAW; Triticum aetivum, cv. Arezzo), rice (ORYSS; Oryza sativa, cv. M202), and giant foxtail (SETFA; Setaria faberi) were planted in pots containing Redi-Earth® planting medium (Scotts Company, 14111 Scottslawn Road, Marysville, Ohio 43041) comprising spaghnum peat moss, vermiculite, wetting agent and starter nutrients and treated postemergence using test chemicals formulated in a non-phytotoxic solvent mixture which included a surfactant. Plants ranged in height from 7 to 10 cm and were in the one- to two-leaf stage for the postemergence treatment. Treated plants and untreated controls were maintained in a greenhouse for approximately 14 d, after which time all treated plants were compared to untreated controls and visually evaluated for injury. Plant response ratings, summarized in Tables L1 to L3, are based on a 0 to 100 scale where 0 is no effect and 100 is complete control. A dash (-) response means no test result. Test results are presented as a mean of 4 reps.

[15] = system: giant foxtail (SETFA; Setaria faberi); test: as above; settings: 31 g a.i./ha
Text: as §2

[16] = system: rice (ORYSS; Oryza sativa, cv. M202); test: as above; settings: 31 g a.i./ha
Text: as §2

[17] = system: soybean (GLXMA; Glycine max, cv. Pioneer 35T58); test: as above; settings: 31 g a.i./ha
Text: as §2

[18] = system: winter wheat (TRZAW; Triticum aetivum, cv. Arezzo); test: as above; settings: 31 g a.i./ha
Text: as §2

With `CCNc1nc(Cl)nc(NC(C)C)n1` [Atrazine, atrazine] the “Observed result (plant response rating), SOLPT” value ([1]; applied alone at 125 g a.i./ha) was 28, the “Observed result (plant response rating), SOLPT” value ([1]; applied alone at 250 g a.i./ha) was 64 and the “Observed result (plant response rating), BRADC” value ([2]; applied alone at 125 g a.i./ha) was 0. For the same compound, the “Observed result (plant response rating), BRADC” value ([2]; applied alone at 250 g a.i./ha) was 0, the “Observed result (plant response rating), ECHCG” value ([3]; applied alone at 125 g a.i./ha) was 96 and the “Observed result (plant response rating), ECHCG” value ([3]; applied alone at 250 g a.i./ha) was 100. The “Observed result (plant response rating), AMBEL” value ([4]; applied alone at 125 g a.i./ha) was 48, the “Observed result (plant response rating), AMBEL” value ([4]; applied alone at 250 g a.i./ha) was 80 and the “Observed result (plant response rating), AMATU” value ([5]; applied alone at 125 g a.i./ha) was 30. The “Observed result (plant response rating), AMATU” value ([5]; applied alone at 250 g a.i./ha) was 39, the “Observed result (plant response rating), ZEAMD” value ([6]; applied alone at 125 g a.i./ha) was 0 and the “Observed result (plant response rating), ZEAMD” value ([6]; applied alone at 250 g a.i./ha) was 0. The “Observed result (plant response rating), PANDI” value ([7]; applied alone at 125 g a.i./ha) was 0, the “Observed result (plant response rating), PANDI” value ([7]; applied alone at 250 g a.i./ha) was 0 and the “Observed result (plant response rating), SETFA” value ([8]; applied alone at 125 g a.i./ha) was 0. For the same compound, the “Observed result (plant response rating), SETFA” value ([8]; applied alone at 250 g a.i./ha) was 0, the “Observed result (plant response rating), DIGSA” value ([9]; applied alone at 125 g a.i./ha) was 0 and the “Observed result (plant response rating), DIGSA” value ([9]; applied alone at 250 g a.i./ha) was 0. For the same compound, the “Observed result (plant response rating), ERICA” value ([10]; applied alone at 125 g a.i./ha) was 23, the “Observed result (plant response rating), ERICA” value ([10]; applied alone at 250 g a.i./ha) was 83 and the “Observed result (plant response rating), AMAPA” value ([11]; applied alone at 125 g a.i./ha) was 76. For the same compound, the “Observed result (plant response rating), AMAPA” value ([11]; applied alone at 250 g a.i./ha) was 74, the “Observed result (plant response rating), GLXMA” value ([12]; applied alone at 125 g a.i./ha) was 15 and the “Observed result (plant response rating), GLXMA” value ([12]; applied alone at 250 g a.i./ha) was 33. For the same compound, the “Observed result (plant response rating), ABUTH” value ([13]; applied alone at 125 g a.i./ha) was 0 and the “Observed result (plant response rating), ABUTH” value ([13]; applied alone at 250 g a.i./ha) was 10.
`CC1COc2ccccc2N1C(=O)C(Cl)Cl` (stereo not shown) [Benoxacor, benoxacor, reference compound] was tested, and the “ZEAMD plant response rating, 0 to 100 scale” value [14] was 0, the “SETFA plant response rating, 0 to 100 scale” value [15] was 0 and the “ORYSS plant response rating, 0 to 100 scale” value [16] was 0. For the same compound, the “GLXMA plant response rating, 0 to 100 scale” value [17] was 0 and the “TRZAW plant response rating, 0 to 100 scale” value [18] was 0.
